Reference: US20200148803A1, “POLYMERIZABLE MULTIFUNCTIONAL ANTIMICROBIAL QUATERNARY AMMONIUM MONOMERS, METHODS OF SYNTHESIS, AND USES THEREOF” (ADA Foundation, priority 2018, published 2020)

Key:
CCL1 cells = assay: Cellular metabolic activity (CellTiter AQueous One Solution Reagent), CCL1 cells; assay type: cell-based; settings: two-fold serial dilutions, 24 h and 72 h
[1] = Sessile drop water contact angle (CA) on resin pellets; assay type: physicochemical; settings: 10 and 20 mass percent in UPE resin
Procedure: (§1) Experimental resin (UPE) was formulated from the commercially available monomers urethane dimethacrylate (UDMA, 50.91% w/w), polyethylene glycol extended urethane dimethacrylate (PEG-U, 18.18% w/w), and ethyl 2-(hydroxymethyl)acrylate (EHMA, 30.91% w/w). A conventional visible light initiator system comprised of camphorquinone (0.2% w/w) and ethyl-4-N,N-dimethylamino benzoate (4EDMAB, 0.8% w/w) was utilized. […] Copolymer specimens (beams) were prepared by depositing UPE (UPE resin control) and AM-UPE resins into glass molds (2 mm×2 mm×25 mm) and photopolymerizing them with a dental curing light (Triad 2000, Dentsply, Charlotte, N.C., USA) for 2 minutes from two sides. Copolymer specimens (pellets) were prepared by depositing UPE and AM-UPE resins into a stainless-steel mold (1 mm×16 mm), sandwiched between two sheets of Mylar film and two glass slides and photopolymerized in the same manner as the beam samples. Degree of vinyl conversion (DVC) of UPE and AM-UPE resins was determined utilizing beam samples by collecting the near infra-red (NIR) spectra (Nexus 670, ThermoFisher, Madison, Wis., USA) before and 24 h after polymerization and calculating the reduction in absorption band at 6165 cm^−1 corresponding to the vinyl (C═C—H) overtone signal. By maintaining a constant specimen thickness, a need for an invariant internal standard was eliminated. The DVC was calculated as: […]
(§2) where Area(polymer) and Area(monomer) correspond to the areas under 6165 cm^−1 peaks after and before the polymerization, respectively. After DVC analysis, flexural strength (FS) and elastic modulus (E) of beam specimen were determined employing the Universal Testing Machine (Instron 5500R, Instron Corp., Canton, Mass., USA). The load was applied (at cross-head speed of 1 mm/min) to the center of a specimen positioned on a test device with supports 20 mm apart. The FS and E of the specimens (three replicates/experimental group) was calculated as instructed in the ISO4049:2009 document. Changes in hydrophilicity/hydrophobicity of UPE resins due to the introduction of AM monomers were assessed on pellet specimen by sessile drop contact angle (CA) measurements (drop shape analyzer DSA100, Krüss GmbH, Hamburg, Germany). Following the deposition of 4 μL water droplets on the resin pellets, the pellets were imaged after 1 min resting time with a camera at the points of intersection (three-phase contact points) between the drop contour and the projection of the surface (baseline). The CA water values were calculated employing the Krüss Advance software. At least four repetitive measurements were performed in each group. Analysis of variance (ANOVA) and Newman-Keuls multiple paired comparisons (at 95% confidence level) were used to analyze the experimental data as a function of resin composition and establish a statistical significance of differences between the experimental groups (WINKS 7.0.9, TexaSoft, Cedar Hills, Tex., USA).

[2] = system: mouse subcutaneous connective tissue fibroblasts (NCTC clone 929, CCL1); assay: Direct contact cytotoxicity, LIVE/DEAD viability, CCL1 cells; assay type: cell-based
[3] = system: human gingival fibroblasts (HGF); assay: Cellular metabolic activity (CellTiter AQueous One Solution Reagent), HGF cells; assay type: cell-based; settings: two-fold serial dilutions, 24 h and 72 h
Procedure: (§3) Immortalized human gingival fibroblasts (HGF) were purchased from Applied Biological Materials, Inc. (Richmond, British Columbia, Canada). […] For experiments, cells were obtained from a subconfluent stock culture.
(§4) Direct contact cytotoxicity testing was conducted as previously described^7, 8. Briefly, cells were exposed to two-fold serial dilutions of AMadh series monomers or AMsil series monomers to approximate the maximum possible exposure, (Table 9). Table 9 illustrates biocompatibility testing using maximum possible monomer exposure (mmol/L), assuming 7% mass fraction in the restorative with a maximum of 2% leaching. To account for multiplicity and variable size of restorations, a two- and four-fold greater dilution was also included in the testing. After 24 and 72 h, cells were assessed for cell viability using the LIVE/DEAD® Viability/Cytotoxicity kit (Life Technologies, Corp., Grand Island, N.Y.). Cellular metabolic activity was subsequently assessed using the CellTiter® AQueous One Solution Reagent (Promega, Corp., Madison, Wis.). Negative controls were without the novel monomer and/or cells. Mean+standard error was obtained from five independent replicates tested in triplicate.

[4] = Degree of vinyl conversion (DVC) by near infra-red spectra of copolymer beams; assay type: physicochemical
Procedure: as §1, §2

[5] = system: human gingival fibroblasts (HGF); assay: Direct contact cytotoxicity, LIVE/DEAD viability, HGF cells; assay type: cell-based
Procedure: as §3, §4

[6] = two-fold serial dilutions, 24 h and 72 h

C=C(C)C(=O)OCC[N+](C)(C)CCCCCC(=O)O.[Br-] [AMadh1, 5-carboxy-N-(2-(methacryloyloxy)ethyl)-N,N-dimethylpentan-1-aminium bromide]
effect of monomer concentration on CCL1 metabolic activity (CCL1 cells): A main effect
effect on hydrophobic-hydrophilic properties of the copolymer [1]: did not alter the hydrophobic-hydrophilic properties
decrease of mean number of live CCL1 cells compared to all lower concentrations ([2]; 10.6 mmol/L, 72 h exposure): ≤ 2.5 fold
effect of monomer concentration on CCL1 cell viability ([2]; 24 h exposure, ≤10.6 mmol/L): insignificant
effect of monomer concentration on CCL1 cell viability [2, 6]: exerted a main effect
effect on metabolic activity of HGF cells [3]: Neither AMadh1 concentration nor time of exposure significantly affected the metabolic activity
increase of DVC relative to UPE resin control ([4]; 10 mass percent in UPE resin): 2%
increase of DVC relative to UPE resin control ([4]; 20 mass percent in UPE resin): 3%
dead HGF cells ([5]; 0.08 mmol/L, 24 h): 102.1 ± 0.9 % control
live HGF cells ([5]; 0.08 mmol/L, 24 h): 92.8 ± 11.3 % control
dead HGF cells ([5]; 0.08 mmol/L, 72 h): 99.5 ± 8.0 % control
live HGF cells ([5]; 0.08 mmol/L, 72 h): 121.6 ± 12.6 % control
dead HGF cells ([5]; 0.17 mmol/L, 24 h): 99.1 ± 1.7 % control
live HGF cells ([5]; 0.17 mmol/L, 24 h): 77.3 ± 15.9 % control
dead HGF cells ([5]; 0.17 mmol/L, 72 h): 98.8 ± 9.1 % control
live HGF cells ([5]; 0.17 mmol/L, 72 h): 95.1 ± 14.4 % control
dead HGF cells ([5]; 0.33 mmol/L, 24 h): 103.5 ± 3.7 % control
live HGF cells ([5]; 0.33 mmol/L, 24 h): 110.4 ± 9.7 % control
dead HGF cells ([5]; 0.33 mmol/L, 72 h): 102.0 ± 12.8 % control
live HGF cells ([5]; 0.33 mmol/L, 72 h): 116.8 ± 12.3 % control
dead HGF cells ([5]; 0.66 mmol/L, 24 h): 101.5 ± 2.5 % control
live HGF cells ([5]; 0.66 mmol/L, 24 h): 107.4 ± 4.7 % control
dead HGF cells ([5]; 0.66 mmol/L, 72 h): 92.1 ± 8.7 % control
live HGF cells ([5]; 0.66 mmol/L, 72 h): 133.0 ± 8.4 % control
dead HGF cells ([5]; 1.33 mmol/L, 24 h): 110.9 ± 7.1 % control
live HGF cells ([5]; 1.33 mmol/L, 24 h): 121.8 ± 8.2 % control
dead HGF cells ([5]; 1.33 mmol/L, 72 h): 89.5 ± 8.9 % control
live HGF cells ([5]; 1.33 mmol/L, 72 h): 107.6 ± 6.9 % control
dead HGF cells ([5]; 2.65 mmol/L, 24 h): 100.4 ± 1.0 % control
live HGF cells ([5]; 2.65 mmol/L, 24 h): 111.7 ± 10.0 % control
dead HGF cells ([5]; 2.65 mmol/L, 72 h): 104.0 ± 17.1 % control
live HGF cells ([5]; 2.65 mmol/L, 72 h): 107.8 ± 4.0 % control
dead HGF cells ([5]; 5.3 mmol/L, 24 h): 102.7 ± 2.6 % control
live HGF cells ([5]; 5.3 mmol/L, 24 h): 108.8 ± 14.8 % control
dead HGF cells ([5]; 5.3 mmol/L, 72 h): 88.9 ± 6.8 % control
live HGF cells ([5]; 5.3 mmol/L, 72 h): 130.5 ± 9.2 % control
dead HGF cells ([5]; 10.6 mmol/L, 24 h): 100.9 ± 1.7 % control
live HGF cells ([5]; 10.6 mmol/L, 24 h): 92.4 ± 10.8 % control
dead HGF cells ([5]; 10.6 mmol/L, 72 h): 90.3 ± 11.6 % control
live HGF cells ([5]; 10.6 mmol/L, 72 h): 103.7 ± 7.8 % control
effect of exposure time on HGF live cells, difference of means ([5]; 24 h vs 72 h, regardless of concentration): 10.4%
effect of monomer concentration on HGF cell viability [5, 6]: monomer concentration affected
number of live HGF cells in monomer-treated groups, median of least square means ([5]; ≤10.6 mmol/L, 24 h or 72 h, % control): 111.7%
